Reference: US8466290B2, “STAT3 inhibitor containing quinolinecarboxamide derivative as active ingredient” (Pharma IP General Incorporated Association, priority 2008, dated 2013)
Like-named read-outs stand apart in the source and are kept apart here.

Key:
STAT3 = STAT3 transcription inhibition test (reporter gene method, oncostatin M stimulation); format: cell-based; details: compound at 100 μM, STAT3 reporter HeLa stable cell line, oncostatin M 10 ng/mL, 4 hours; for inhibition at 100 µM: Homo sapiens, read-out: STAT3 transcription inhibitory activity (%)
Protocol: The inhibition of STAT3 transcription was evaluated by using STAT3 reporter HeLa stable cell line (Panomics Inc., catalog No. RC0003), a cell line for the reporter gene method, and performing the following method according to the appendix included therein.
STAT3 reporter HeLa stable cell line subcultured and maintained in a Dulbecco's modified Eagle's medium (DMEM) containing 10% fetal bovine serum, 100 units/mL penicillin, and 100 μg/mL streptomycin was inoculated at a concentration of 40000 cells/well to a 96-well plate (white) and attached to the plate by overnight incubation at 37° C. under 5% CO2. After addition of each evaluation compound adjusted to various concentrations (adjusted with a DMSO solution), the cells were precultured for 1 hour. Then, oncostatin M for activating STAT3 was added at a final concentration 10 ng/mL, and the cells were further cultured at 37° C. under 5% CO2 for 4 hours. Luciferase activity derived from the cells was determined using Steady-Glo Luciferase Assay System (Promega Corp.), and STAT3 transcriptional activity scores were calculated according to the following formula: STAT3 transcriptional activity score (%)=100×(Lchem−L0)/(LDMSO−L0) Lo: luminescence intensity obtained without stimulation with oncostatin M Lchem: luminescence intensity obtained by the addition of a test sample LDMSO: luminescence intensity obtained by the addition of only a solvent for dissolving a test sample

MDA-MB-435S = MDA-MB-435S cell growth inhibitory activity; format: cell-based; details: for inhibition at 20 µM: Homo sapiens, read-out: Cell growth inhibitory activity (%)
Protocol: […] Each well was washed three times with a medium. Then, after addition of 100 μL/well of a medium and 20 μL/well of CellTiter 96 AQueous One Solution Reagent (Promega Corp.), the cells were incubated at 37° C. for 2 hours in the presence of 5% CO2.

[1] = tested on: Human lymphoma SCC-3 cells; assay: SCC-3 cell growth inhibition test (MTT method); format: cell-based; details: 72-hour culture, read-out: Cell growth inhibitory activity (IC50: μM)
Protocol: Simultaneously with cell inoculation, each test compound diluted to various concentrations with an RPMI medium was added to each well.

[2] = tested on: human lymphoma SCC-3 cells; assay: Evaluation using human lymphoma-transplanted nude mice; details: SCC-3 cancer-bearing nude mice; for T/C (%): tumor volume ratio vs control
Protocol: 1×10^6 human lymphoma SCC-3 cells (containing Matrigel) were subcutaneously transplanted to the flank part of each 6-week-old male nude mouse (BALB/cA-nu/nu, CLEA Japan, Inc.). After the transplantation, the tumor volumes [major axis (mm) and minor axis (mm)] of the SCC-3 cancer-bearing mice were measured using an electronic vernier caliper (CD-10, Mitutoyo Corp.), and tumor volumes [mm^3: (major axis)x(minor axis)^2/2] were calculated. SCC-3 cancer-bearing mice whose tumor volume reached 50 to 300 mm^3 were selected and divided based on the tumor volumes into groups each containing 5 individuals. A test compound was suspended in a 0.5% methylcellulose solution and orally administered at a dose of 0.01 mL/g body weight once a day for 5 days (Day 0 (administration initiation day) to Day 4). To a control group, none was administered. The tumor volumes of the SCC-3 cancer-bearing mice were measured every day from the initiation of test compound administration to evaluate antitumor effect. The antitumor effect was assessed by calculating T/C (%) values according to the following formula:
V: tumor volume on every assay day
V0: tumor volume on the administration initiation day (V/V0 of the test compound group)/(V/V0 of the control group)×100

[3] = 40 mg/kg orally once a day for 5 days
[4] = 160 mg/kg orally once a day for 5 days

Row | IC50 ([1]; Homo sapiens) | SMILES | inhibition at 100 µM (STAT3) | inhibition at 20 µM (MDA-MB-435S; compound at 20 μM, 72 hours) | further results
1 | 4.6 µM | N#Cc1ccc(-c2cc(C(=O)Nc3nnc(-c4ccco4)o3)c3ccccc3n2)cc1 [Ia-17, 2-(4-cyanophenyl)-N-[5-(2-furyl)-1,3,4-oxadiazol-2-yl]-4-quinolinecarboxamide] | 80% | 54% | –
2 | 2.1 µM | O=C(Nc1nnc(-c2ccco2)o1)c1cc(-c2ccc(Cl)s2)nc2ccccc12 [Ia-19, 2-(5-chloro-2-thienyl)-N-[5-(2-furyl)-1,3,4-oxadiazol-2-yl]-4-quinolinecarboxamide] | 77% | 98% | –
3 | 1.9 µM | O=C(Nc1nnc(-c2ccco2)o1)c1cc(-c2ccccc2)nc2cc(Br)ccc12 [Ia-24, 7-bromo-N-[5-(2-furyl)-1,3,4-oxadiazol-2-yl]-2-phenyl-4-quinolinecarboxamide] | 72% | 94% | –
4 | 1.3 µM | Cc1cc(C)c2nc(-c3cccs3)cc(C(=O)Nc3nnc(-c4ccco4)o3)c2c1 [Ia-33, N-[5-(2-furyl)-1,3,4-oxadiazol-2-yl]-6,8-dimethyl-2-(2-thienyl)-4-quinolinecarboxamide] | 58% | 79% | –
5 | 2 µM | O=C(Nc1nnc(-c2ccco2)o1)c1cc(-c2ccc(Cl)cc2)nc2ccccc12 [Ia-47, 2-(4-chlorophenyl)-N-[5-(2-furyl)-1,3,4-oxadiazol-2-yl]-4-quinolinecarboxamide] | > 100% | 82% | –
6 | 2.2 µM | O=C(Nc1nnc(-c2ccco2)o1)c1cc(-c2ccc([N+](=O)[O-])cc2)nc2ccccc12 [Ia-52, N-[5-(2-furyl)-1,3,4-oxadiazol-2-yl]-2-(4-nitrophenyl)-4-quinolinecarboxamide] | > 100% | 68% | –
7 | 2.1 µM | O=C(Nc1nnc(-c2ccco2)o1)c1cc(-c2cccc3ccccc23)nc2ccccc12 [Ia-60, N-[5-(2-furyl)-1,3,4-oxadiazol-2-yl]-2-(1-naphthyl)-4-quinolinecarboxamide] | > 100% | 100% | –
8 | – | O=C(Nc1nnc(-c2ccco2)o1)c1cc(/C=C/c2ccccc2)nc2ccccc12 [Ia-65, N-[5-(2-furyl)-1,3,4-oxadiazol-2-yl]-2-trans-styryl-4-quinolinecarboxamide] | – | – | STAT3 transcription inhibitory activity (%) (STAT3): >100%; Cell growth inhibitory activity (%) (MDA-MB-435S; compound at 20 μM, 72 hours): 69%; IC50 [1]: 2.6 µM
9 | 1.9 µM | Cc1ccc2nc(-c3ccccc3)cc(C(=O)Nc3nnc(-c4ccco4)o3)c2c1 [Ia-70, N-[5-(2-furyl)-1,3,4-oxadiazol-2-yl]-6-methyl-2-phenyl-4-quinolinecarboxamide] | > 100% | > 100% | –
10 | 0.7 µM | O=C(Nc1nnc(-c2ccco2)o1)c1cc(-c2ccccc2)nc2c(Cl)cc(Cl)cc12 [Ia-74, 6,8-dichloro-N-[5-(2-furyl)-1,3,4-oxadiazol-2-yl]-2-phenyl-4-quinolinecarboxamide] | 97% | 82% | –
11 | 2.7 µM | Cc1ccc(-c2cc(C(=O)Nc3nnc(-c4ccccc4)o3)c3ccccc3n2)cc1 [Ia-i, N-(5-phenyl-1,3,4-oxadiazol-2-yl)-2-(4-tolyl)-4-quinolinecarboxamide] | 85% | – | –

Row | SMILES | IC50 ([1]; Homo sapiens) | inhibition at 100 µM (STAT3) | inhibition at 20 µM (MDA-MB-435S; compound at 20 μM, 72 hours) | further results
12 | O=C(Nc1nnc(-c2ccco2)o1)c1cc(-c2ccccc2)nc2ccccc12 [Ia-1, N-[5-(2-furyl)-1,3,4-oxadiazol-2-yl]-2-phenyl-4-quinolinecarboxamide] | 5.9 µM | 54% | – | inhibition at 20 µM (MDA-MB-435S; 72 h): 89%; The number of deaths [2, 3]: 0/5; T/C (%) [2, 3]: 38%; The number of deaths [2, 4]: 0/5; T/C (%) [2, 4]: 40%
13 | O=C(Nc1nnc(-c2ccco2)o1)c1cc(-c2ccccc2)nc2ccc(Cl)cc12 [Ia-22, 6-chloro-N-[5-(2-furyl)-1,3,4-oxadiazol-2-yl]-2-phenyl-4-quinolinecarboxamide] | 0.9 µM | 76% | 98% | The number of deaths [2, 3]: 0/5; T/C (%) [2, 3]: 56%
14 | CC(C)(C)OC(=O)c1cccc(-c2cc(C(=O)Nc3nnc(-c4ccco4)o3)c3ccccc3n2)c1 [Ia-44, 2-(3-tert-butoxycarbonylphenyl)-N-[5-(2-furyl)-1,3,4-oxadiazol-2-yl]-4-quinolinecarboxamide] | 1.8 µM | > 100% | 99% | –
15 | CC(C)(C)OC(=O)c1ccc(-c2cc(C(=O)Nc3nnc(-c4ccco4)o3)c3ccccc3n2)cc1 [Ia-53, 2-(4-tert-butoxycarbonylphenyl)-N-[5-(2-furyl)-1,3,4-oxadiazol-2-yl]-4-quinolinecarboxamide] | 0.7 µM | > 100% | 100% | –
16 | O=C(Nc1nnc(-c2ccco2)o1)c1cc(-c2ccccc2)nc2ccc(OC(F)(F)F)cc12 [Ia-71, N-[5-(2-furyl)-1,3,4-oxadiazol-2-yl]-2-phenyl-6-trifluoromethoxy-4-quinolinecarboxamide] | 0.3 µM | > 100% | – | inhibition at 20 µM (MDA-MB-435S; 72 h): 85%
